# Results from PubChem BioAssay AID1259407 (Chemical Carcinogenesis Research Information System (CCRIS), 2018).
# Active and inactive are the calls of the source. No rule for the calls is given here.
# Test system: CCRIS mutagenicity, Ames/micronucleus/aberration tests
# Assay: CCRIS mutagenicity studies
# [1] = Test System: AMES SALMONELLA TYPHIMURIUM, Strain/Indicator: TA1538, Metabolic Activation: NONE, Method: STANDARD PLATE
# [2] = Test System: AMES SALMONELLA TYPHIMURIUM, Strain/Indicator: TA1538, Metabolic Activation: RAT, LIVER, S-9, AROCLOR 1254, Method: STANDARD PLATE
# [3] = Test System: AMES SALMONELLA TYPHIMURIUM, Strain/Indicator: TA1535, Metabolic Activation: NONE, Method: STANDARD PLATE
# [4] = Test System: AMES SALMONELLA TYPHIMURIUM, Strain/Indicator: TA98, Metabolic Activation: NONE, Method: STANDARD PLATE
# [5] = Test System: AMES SALMONELLA TYPHIMURIUM, Strain/Indicator: TA100, Metabolic Activation: NONE, Method: STANDARD PLATE
# [6] = Test System: AMES SALMONELLA TYPHIMURIUM, Strain/Indicator: TA98, Metabolic Activation: NONE, Method: PREINCUBATION
# [7] = Test System: AMES SALMONELLA TYPHIMURIUM, Strain/Indicator: TA100, Metabolic Activation: NONE, Method: PREINCUBATION
# [8] = Test System: AMES SALMONELLA TYPHIMURIUM, Strain/Indicator: TA1535, Metabolic Activation: NONE, Method: PREINCUBATION
# [9] = Test System: AMES SALMONELLA TYPHIMURIUM, Strain/Indicator: TA1537, Metabolic Activation: NONE, Method: PREINCUBATION
# [10] = Test System: AMES SALMONELLA TYPHIMURIUM, Strain/Indicator: TA98, Metabolic Activation: RAT, LIVER, S-9, AROCLOR 1254, Method: STANDARD PLATE
# [11] = Test System: AMES SALMONELLA TYPHIMURIUM, Strain/Indicator: TA100, Metabolic Activation: RAT, LIVER, S-9, AROCLOR 1254, Method: STANDARD PLATE
# [12] = Test System: AMES SALMONELLA TYPHIMURIUM, Strain/Indicator: TA1535, Metabolic Activation: RAT, LIVER, S-9, AROCLOR 1254, Method: STANDARD PLATE
smiles,measurement,setting,value
CCCCCCC(CCCC)COc1ccc(-c2ccc(-c3ccc(-c4ccc(OCC(CCCC)CCCCCC)cc4)cc3)cc2)cc1 (centres undefined),mutagenic call,[1],inactive; negative
same,mutagenic call,[2],inactive; negative
O=C(O)c1cccnc1Nc1cccc(C(F)(F)F)c1,mutagenic call,[3],inactive; negative
c1cc(-c2cc3ccc(C4=NCCN4)cc3[nH]2)ccc1C1=NCCN1,mutagenic call,[4],inactive; negative
same,mutagenic call,"Test System: AMES SALMONELLA TYPHIMURIUM, Strain/Indicator: TA98, Metabolic Activation: RAT, LIVER, S-9, PHENOBARBITAL, Method: STANDARD PLATE",inactive; negative
same,mutagenic call,[5],inactive; negative
same,mutagenic call,"Test System: AMES SALMONELLA TYPHIMURIUM, Strain/Indicator: TA100, Metabolic Activation: RAT, LIVER, S-9, PHENOBARBITAL, Method: STANDARD PLATE",inactive; negative
NC(=O)N(c1ccccc1)c1ccc(C(=O)O)cc1,mutagenic call,"Test System: AMES SALMONELLA TYPHIMURIUM, Strain/Indicator: TA98, Metabolic Activation: MAIZE SEEDLING, S-14, Method: PREINCUBATION",active; positive
same,mutagenic call,"Test System: AMES SALMONELLA TYPHIMURIUM, Strain/Indicator: TA98, Metabolic Activation: MOUSE, LIVER, S-9, Method: PREINCUBATION",inactive; negative
same,mutagenic call,[6],inactive; negative
same,mutagenic call,"Test System: AMES SALMONELLA TYPHIMURIUM, Strain/Indicator: TA100, Metabolic Activation: MAIZE SEEDLING, S-14, Method: PREINCUBATION",inactive; negative
same,mutagenic call,"Test System: AMES SALMONELLA TYPHIMURIUM, Strain/Indicator: TA100, Metabolic Activation: MOUSE, LIVER, S-9, Method: PREINCUBATION",inactive; negative
same,mutagenic call,[7],inactive; negative
same,mutagenic call,[8],inactive; negative
same,mutagenic call,[9],inactive; negative
same,mutagenic call,"Test System: AMES SALMONELLA TYPHIMURIUM, Strain/Indicator: TA1538, Metabolic Activation: NONE, Method: PREINCUBATION",inactive; negative
C=C(C=O)CCCC,mutagenic call,[7],active; positive
same,mutagenic call,"Test System: AMES SALMONELLA TYPHIMURIUM, Strain/Indicator: TA100, Metabolic Activation: RAT LIVER S-9, AROCLOR 1254, Method: PREINCUBATION",active; positive
O=[N+]([O-])c1ccc(/C=C/c2cccc(Cl)c2)cc1,mutagenic call,"Test System: AMES SALMONELLA TYPHIMURIUM, Strain/Indicator: TA98 (NR), Metabolic Activation: NONE, Method: STANDARD PLATE",active; positive
same,mutagenic call,"Test System: AMES SALMONELLA TYPHIMURIUM, Strain/Indicator: TA98 (NR), Metabolic Activation: S-9, Method: STANDARD PLATE",active; positive
same,mutagenic call,[4],active; positive
same,mutagenic call,"Test System: AMES SALMONELLA TYPHIMURIUM, Strain/Indicator: TA98, Metabolic Activation: S-9, Method: STANDARD PLATE",active; positive
same,mutagenic call,"Test System: AMES SALMONELLA TYPHIMURIUM, Strain/Indicator: TA100(NR), Metabolic Activation: NONE, Method: STANDARD PLATE",inactive; negative
same,mutagenic call,"Test System: AMES SALMONELLA TYPHIMURIUM, Strain/Indicator: TA100 (NR), Metabolic Activation: S-9, Method: STANDARD PLATE",active; positive
same,mutagenic call,[5],active; positive
same,mutagenic call,"Test System: AMES SALMONELLA TYPHIMURIUM, Strain/Indicator: TA100, Metabolic Activation: S-9, Method: STANDARD PLATE",active; positive
CS(=N)(=O)CCC(N)C(=O)O (centres undefined),mutagenic call,"Test System: AMES SALMONELLA TYPHIMURIUM, Strain/Indicator: TA102, Metabolic Activation: NONE, Method: STANDARD PLATE",inactive; negative
same,mutagenic call,"Test System: AMES SALMONELLA TYPHIMURIUM, Strain/Indicator: TA102, Metabolic Activation: RAT, LIVER, S-9, AROCLOR 1254, Method: STANDARD PLATE",inactive; negative
O=C(OC[C@@H]1CO1)c1ccc([N+](=O)[O-])cc1,mutagenic call,[5],active; positive
COc1cc(OC)c(Cl)c(-n2c(-c3ccccc3)cc(=O)c(C)c2-c2ccc(F)cc2)c1,mutagenic call,[6],inactive; negative
same,mutagenic call,"Test System: AMES SALMONELLA TYPHIMURIUM, Strain/Indicator: TA98, Metabolic Activation: S-9, Method: PREINCUBATION",inactive; negative
same,mutagenic call,[7],inactive; negative
same,mutagenic call,"Test System: AMES SALMONELLA TYPHIMURIUM, Strain/Indicator: TA100, Metabolic Activation: S-9, Method: PREINCUBATION",inactive; negative
same,mutagenic call,"Test System: AMES SALMONELLA TYPHIMURIUM, Strain/Indicator: TA102, Metabolic Activation: NONE, Method: PREINCUBATION",inactive; negative
same,mutagenic call,"Test System: AMES SALMONELLA TYPHIMURIUM, Strain/Indicator: TA102, Metabolic Activation: S-9, Method: PREINCUBATION",inactive; negative
same,mutagenic call,[8],inactive; negative
same,mutagenic call,"Test System: AMES SALMONELLA TYPHIMURIUM, Strain/Indicator: TA1535, Metabolic Activation: S-9, Method: PREINCUBATION",inactive; negative
same,mutagenic call,[9],inactive; negative
same,mutagenic call,"Test System: AMES SALMONELLA TYPHIMURIUM, Strain/Indicator: TA1537, Metabolic Activation: S-9, Method: PREINCUBATION",inactive; negative
same,mutagenic call,"Test System: E. COLI, Strain/Indicator: WP2 UVRA, Metabolic Activation: NONE, Method: PREINCUBATION",inactive; negative
same,mutagenic call,"Test System: E. COLI, Strain/Indicator: WP2 UVRA, Metabolic Activation: S-9, Method: PREINCUBATION",inactive; negative
CN(CCC#N)c1ccc(N=Nc2ccc3ncsc3c2)cc1,mutagenic call,"Test System: AMES SALMONELLA TYPHIMURIUM, Strain/Indicator: TA98, Metabolic Activation: RAT, LIVER, S-9, AROCLOR, Method: PREINCUBATION",active; positive
same,mutagenic call,"Test System: AMES SALMONELLA TYPHIMURIUM, Strain/Indicator: TA98, Metabolic Activation: RAT, LIVER, S-9, AROCLOR, Method: STANDARD PLATE",active; positive
CCCOC(=O)NO,mutagenic call,"Test System: E. COLI, Strain/Indicator: WP2 UVRA, Metabolic Activation: NONE, Method: FLUCTUATION TEST",active; positive
O=C(O)CC[C@H](NC(=O)COc1cc(Cl)c(Cl)cc1Cl)C(=O)O,mutagenic call,"Test System: AMES SALMONELLA TYPHIMURIUM, Strain/Indicator: TA97, Metabolic Activation: NONE, Method: STANDARD PLATE",inactive; negative
same,mutagenic call,"Test System: AMES SALMONELLA TYPHIMURIUM, Strain/Indicator: TA97, Metabolic Activation: RAT, LIVER, S-9, AROCLOR 1254, Method: STANDARD PLATE",inactive; negative
same,mutagenic call,[4],inactive; negative
same,mutagenic call,[10],inactive; negative
same,mutagenic call,[5],inactive; negative
same,mutagenic call,[11],inactive; negative
same,mutagenic call,[3],inactive; negative
same,mutagenic call,[12],inactive; negative
same,mutagenic call,[1],inactive; negative
same,mutagenic call,[2],inactive; negative
Cc1cc2ccccc2c2cc3c(cc12)[C@H](O)[C@@H](O)C=C3,mutagenic call,"Test System: AMES SALMONELLA TYPHIMURIUM, Strain/Indicator: TA100, Metabolic Activation: RAT, LIVER, S-9, AROCLOR 1254, Method: PREINCUBATION",active; positive
CC(C)c1c(C(=O)Nc2ccccc2)c(-c2ccccc2)c(-c2ccc(F)cc2)n1CC[C@@H](O)C[C@@H](O)CC(=O)O,mutagenic call,[4],inactive; negative
same,mutagenic call,[10],inactive; negative
same,mutagenic call,[5],inactive; negative
same,mutagenic call,[11],inactive; negative
same,mutagenic call,[3],inactive; negative
same,mutagenic call,[12],inactive; negative
same,mutagenic call,"Test System: AMES SALMONELLA TYPHIMURIUM, Strain/Indicator: TA1537, Metabolic Activation: NONE, Method: STANDARD PLATE",inactive; negative
same,mutagenic call,"Test System: AMES SALMONELLA TYPHIMURIUM, Strain/Indicator: TA1537, Metabolic Activation: RAT, LIVER, S-9, AROCLOR 1254, Method: STANDARD PLATE",inactive; negative
same,mutagenic call,[1],inactive; negative
same,mutagenic call,[2],inactive; negative
same,mutagenic call,"Test System: CHINESE HAMSTER V-79, Strain/Indicator: V-79 (HGPRT)/6-THIOGUANINE, Metabolic Activation: NONE",inactive; negative
same,mutagenic call,"Test System: CHINESE HAMSTER V-79, Strain/Indicator: V-79 (HGPRT)/6-THIOGUANINE, Metabolic Activation: RAT, LIVER, S-9, AROCLOR 1254",inactive; negative
same,mutagenic call,"Test System: E. COLI, Strain/Indicator: WP2 UVRA, Metabolic Activation: NONE, Method: STANDARD PLATE",inactive; negative
same,mutagenic call,"Test System: E. COLI, Strain/Indicator: WP2 UVRA, Metabolic Activation: RAT, LIVER, S-9, AROCLOR 1254, Method: STANDARD PLATE",inactive; negative
